Results reported in patent US20020006406A1, “METHOD FOR THE TREATMENT OF STAPHYLOCOCCAL DISEASE” (priority 1997, published 2002).
Values after ≈ are worked out from the molar mass of the structure shown.

Tests used:
[1] = system: methicillin-resistant VISA strain of S. aureus; assay: Vancomycin MIC for the laboratory-selected VISA strain; type: cell-based; conditions: Staphylococcus aureus, variant strain selected after cycles of growth in glycopeptide-containing medium
Protocol: Strains that are both methicillin-resistant and resistant to vancomycin are a newly emerging problem. A variant strain of this type was selected after cycles of growth in glycopeptide-containing medium. The vancomycin MIC for the resulting strain was 8 μg/ml, as reported also for naturally occurring VISA strains isolated from patients in the U.S. and Japan. (Centers for Disease Control and Prevention, Morbidity and Mortality Weekly Report 1997; 46:813-815). Staphylococcal isolates are considered to be susceptible to vancomycin if the MIC is less than or equal to 4 μg/ml and to be completely resistant if the MIC is greater than or equal to 32 μg/ml (National Committee for Clinical Laboratory Standards, 1993. Approved Standard M2-A5. Performance standards for antimicrobial disk susceptibility tests—Fifth edition. National Committee for Clinical Laboratory Standards, Villanova, Pa.)

S. aureus strain AG461 [2] = assay: Time-kill experiment, S. aureus AG461 (FIG. 1); type: cell-based; conditions: 2 and 16 μg/ml (1x and 8x MIC), three hours of contact
Protocol: The bactericidal activity of lysostaphin against S. aureus was also studied by means of time-kill experiments. In one experiment of this type, S. aureus strain AG461, a methicillin-resistant clinical isolate from Genoa, Italy, was inoculated into Mueller-Hinton broth (Difco) and grown at 37° C. with gentle shaking until it reached approximately 10^8 viable cells per ml (CFU/ml), as estimated from the absorbance of the culture at 600 nm. The culture was then diluted with fresh broth to approximately 10^6 CFU/ml and 5 ml aliquots were placed in several different flasks for exposure to different concentrations of antibacterial agents. Incubation was continued, with gentle shaking, at 37° C., and samples were withdrawn at intervals for determination of viable cells. Serial 10-fold dilutions of the samples were made in sterile saline (0.9% NaCl in distilled water) and duplicate 0.1 ml aliquots of appropriate dilutions were plated on Tryptic Soy agar plates (Remel) using the agar inclusion method. (In this method, the aliquot to be plated is added to 2.5 ml of top agar, which is mixed and poured onto a plate. Top agar consisted of molten Tryptic Soy agar (Difco) diluted 2-fold with Difco Tryptic Soy broth to give a final agar concentration of 0.75%, w/v.) The plates were incubated for 24-48 hours at 36° C. and the colonies were counted manually. […]

S. aureus Smith = assay: Acute S. aureus infection model in mice (survival); type: in vivo
Protocol: The efficacy of lysostaphin was compared to that of vancomycin in an acute infection model in mice. S. aureus Smith was cultured overnight, with moderate agitation, in Veal Infusion broth (Difco) and diluted in broth containing 5% hog gastric mucin (Difco). Male Swiss-Webster mice (Taconic Farms, Germantown, N.Y.) weighing approximately 20 grams were infected intraperitoneally with 10^5-10^6 viable cells, approximately tenfold the inoculum that reproducibly killed all untreated animals within 48 h. There were six mice in each treatment group. Lysostaphin was administered intravenously (in 0.1 ml 5% dextrose for injection) or subcutaneously (in 0.2 ml), within 10 min of infection. Vancomycin was administered subcutaneously.

S. aureus strain AG461 [3] = conditions: strain AG461 (methicillin-resistant clinical isolate)
Excerpt: The different concentrations of lysostaphin and vancomycin used were one and eight times their respective MIC.

S. aureus = assay: MIC by broth macrodilution in glass tubes; type: cell-based
Protocol: In this experiment, MICs were determined by broth macrodilution in 1 ml final volumes in glass tubes. Otherwise, the methodology was as described above.

Compound | MIC [1] | bactericidal action (killing of the bacteria) (S. aureus strain AG461 [2]) | % survival (S. aureus Smith; 5 mg/kg sc) | MIC (lower time-kill concentration stated to be one times MIC) (S. aureus strain AG461 [3]) | MIC (S. aureus; strain AG402 (clinical isolate)) | MIC (S. aureus; strain AG404 (clinical isolate, methicillin-resistant)) | MIC (S. aureus; strain AG414) | MIC (S. aureus; strain AG417) | % survival (S. aureus Smith; Table 4 experiment, dose 0.08 mg/kg) | % survival (S. aureus Smith; Table 4 experiment, dose 0.16 mg/kg) | % survival (S. aureus Smith; Table 4 experiment, dose 0.31 mg/kg) | % survival (S. aureus Smith; Table 4 experiment, dose 0.63 mg/kg)
CN[C@H](CC(C)C)C(=O)N[C@H]1C(=O)N[C@@H](CC(N)=O)C(=O)N[C@H]2C(=O)N[C@H]3C(=O)N[C@H](C(=O)N[C@H](C(=O)O)c4cc(O)cc(O)c4-c4cc3ccc4O)[C@H](O)c3ccc(c(Cl)c3)Oc3cc2cc(c3O[C@@H]2O[C@H](CO)[C@@H](O)[C@H](O)[C@H]2O[C@H]2C[C@](C)(N)[C@H](O)[C@H](C)O2)Oc2ccc(cc2Cl)[C@H]1O [vancomycin, reference compound] | 8 µg/mL (≈ 5.52 µM) | very little killing | 100% | 2 µg/mL (≈ 1.38 µM) | – | – | – | – | – | – | – | –
Gly218Asp: lysostaphin variant with a single change, glycine to aspartic acid, at position 218 of the mature protein | – | – | – | – | .06 µg/mL | .06 µg/mL | .03 µg/mL | .03 µg/mL | 0% | 17% | 33% | 83%
